Assays:
Assay in all cases: relative viability (nuclei count vs DMSO), 5 days (fraction); higher = more cells survive
PAC-1 + Bortezomib = compound: C=CCc1cccc(/C=N/NC(=O)CN2CCN(Cc3ccccc3)CC2)c1O [PAC-1] + CC(C)C[C@H](NC(=O)[C@H](Cc1ccccc1)NC(=O)c1cnccn1)B(O)O [Bortezomib] (partner 0.002 µM)
In short: (§1)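 Relative viability equals treated-well nuclei counts divided by vehicle-well nuclei counts. Counts came from 4× images of lung cancer cell lines grown in 1536-well plates for 5 days after pin-tool dosing on the day after seeding. Dosing used one drug alone or a fixed anchor-drug dose plus five library-drug doses (not always all listed) in √10 steps, and values are medians of duplicate plates.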

BMX-IN-1 + Trametinib = compound: C=CC(=O)Nc1cc(-n2c(=O)ccc3cnc4ccc(-c5ccc(NS(C)(=O)=O)cc5)cc4c32)ccc1C [BMX-IN-1] + CC(=O)Nc1cccc(-n2c(=O)n(C3CC3)c(=O)c3c(Nc4ccc(I)cc4F)n(C)c(=O)c(C)c32)c1 [Trametinib] (partner 0.02 µM)
In short: as §1

Ibrutinib + Trametinib = compound: C=CC(=O)N1CCC[C@@H](n2nc(-c3ccc(Oc4ccccc4)cc3)c3c(N)ncnc32)C1 [Ibrutinib] + CC(=O)Nc1cccc(-n2c(=O)n(C3CC3)c(=O)c3c(Nc4ccc(I)cc4F)n(C)c(=O)c(C)c32)c1 [Trametinib] (partner 0.02 µM)
In short: as §1

PAC-1 + AZD7762 = compound: C=CCc1cccc(/C=N/NC(=O)CN2CCN(Cc3ccccc3)CC2)c1O [PAC-1] + NC(=O)Nc1cc(-c2cccc(F)c2)sc1C(=O)N[C@H]1CCCNC1 [AZD7762] (partner 0.2 µM)
In short: as §1

Cell Line | relative viability (PAC-1 + Bortezomib; first compound 0.06325 µM) | relative viability (PAC-1 + Bortezomib; first compound 0.2 µM) | relative viability (PAC-1 + Bortezomib; first compound 2 µM) | relative viability (BMX-IN-1 + Trametinib; first compound 0.02 µM) | relative viability (BMX-IN-1 + Trametinib; first compound 0.2 µM) | relative viability (BMX-IN-1 + Trametinib; first compound 0.6325 µM) | relative viability (BMX-IN-1 + Trametinib; first compound 2 µM) | relative viability (Ibrutinib + Trametinib; first compound 0.01581 µM) | relative viability (Ibrutinib + Trametinib; first compound 0.05 µM) | relative viability (Ibrutinib + Trametinib; first compound 0.1581 µM) | relative viability (Ibrutinib + Trametinib; first compound 0.5 µM) | relative viability (PAC-1 + AZD7762; first compound 0.02 µM) | relative viability (PAC-1 + AZD7762; first compound 0.06325 µM) | relative viability (PAC-1 + AZD7762; first compound 0.2 µM) | relative viability (PAC-1 + AZD7762; first compound 2 µM) | relative viability (PAC-1 + Bortezomib; first compound 0.02 µM) | relative viability (Ibrutinib + Trametinib; first compound 0.005 µM)
EPLC-272H | 0.895 | 1.02 | 1 | 0.27 | 0.257 | 0.311 | 0.318 | 0.293 | 0.311 | 0.277 | 0.243 | 0.177 | 0.295 | 0.134 | 0.22 |  | 
H3255 | 0.778 | 0.861 | 0.729 | 0.725 | 0.624 | 0.599 | 0.672 | 0.531 |  | 0.624 | 0.378 | 0.993 | 0.802 | 0.772 | 0.931 | 0.876 | 0.461
HARA | 1.12 | 0.853 | 1.11 | 0.907 | 0.449 | 0.492 | 0.654 | 0.633 | 0.638 | 0.78 | 0.262 | 0.229 | 0.304 | 0.0838 | 0.457 | 1.08 | 0.719
HCC-15 | 1.11 | 1.01 | 1.04 | 0.268 | 0.411 | 0.388 | 0.396 | 0.367 | 0.419 | 0.432 | 0.365 | 1.34 | 1.35 | 0.884 | 1.35 | 1.03 | 0.387
HCC-44 | 0.885 | 0.947 | 0.934 | 1.11 | 1.08 | 1.14 | 1.03 | 1.04 | 0.992 | 1.19 | 1.06 | 1.09 | 0.998 | 1.03 | 0.992 | 0.894 | 1.04
HCC-78 | 0.496 | 0.434 | 0.483 | 0.801 | 0.967 | 0.717 | 0.896 | 0.569 | 0.622 | 0.698 | 0.706 | 0.676 | 0.558 | 0.596 | 0.573 | 0.387 | 
HCC-366 | 1.04 | 1.07 | 1.14 | 0.36 | 0.352 | 0.376 | 0.361 | 0.366 | 0.317 | 0.394 | 0.391 | 0.265 | 0.309 | 0.251 | 0.312 | 1.01 | 0.34
HCC-827 | 1.01 | 1.07 | 0.978 | 0.558 | 0.537 | 0.475 | 0.518 | 0.489 | 0.416 | 0.509 | 0.196 | 0.239 | 0.191 | 0.235 | 0.237 | 1.1 | 0.49
HOP-62 | 0.986 | 0.836 | 0.673 | 0.44 | 0.379 | 0.366 | 0.341 | 0.331 | 0.374 | 0.424 | 0.385 | 0.822 | 0.623 | 0.577 | 0.515 | 0.976 | 0.367
IA-LM | 0.756 | 0.783 | 0.807 |  |  |  |  |  |  |  |  |  |  |  |  | 0.803 | 

— the supplement of paper PMC10307832
